According to patent US12606548B2, “Fungicidal oxadiazoles” (FMC CORPORATION, priority 2019, dated 2026):

Experiments:
[1] = tested on: Puccinia recondita f. sp. tritici; experiment: Test C: test suspension sprayed on wheat seedlings, inoculated next day with Puccinia recondita f. sp. tritici (wheat leaf rust), visual disease rating; assay type: in vivo; settings: for Test C rating (% disease control): relative to the controls
Description: General protocol for preparing test suspensions for Tests A-C: the test compounds were first dissolved in acetone in an amount equal to 3% of the final volume and then suspended at the desired concentration (in ppm) in acetone and purified water (50/50 mix by volume) containing 250 ppm of the surfactant PEG400 (polyhydric alcohol esters). The resulting test suspensions were then used in Tests A-C. The test suspension was sprayed to the point of run-off on wheat seedlings. The following day the seedlings were inoculated with a spore suspension of Puccinia recondita f. sp. tritici; (the causal agent of wheat leaf rust) and incubated in a saturated atmosphere at 20° C., for 24 h, and then moved to a growth chamber at 20° C., for 6 days, after which time visual disease ratings were made. […] A dash (-) indicates the compound was not tested. The test suspensions were sprayed at the concentration listed in the column “Rate in ppm”, unless otherwise indicated.

[2] = tested on: Phakopsora pachyrhizi; experiment: Test A: test suspension sprayed on soybean seedlings, inoculated next day with Phakopsora pachyrhizi (Asian soybean rust), visual disease rating; assay type: in vivo; settings: for Test A rating (% disease control): relative to the controls
Description: General protocol for preparing test suspensions for Tests A-C: the test compounds were first dissolved in acetone in an amount equal to 3% of the final volume and then suspended at the desired concentration (in ppm) in acetone and purified water (50/50 mix by volume) containing 250 ppm of the surfactant PEG400 (polyhydric alcohol esters). The resulting test suspensions were then used in Tests A-C. The test suspension was sprayed to the point of run-off on soybean seedlings. The following day the seedlings were inoculated with a spore suspension of Phakopsora pachyrhizi (the causal agent of Asian soybean rust) and incubated in a saturated atmosphere at 22° C., for 24 h and then moved to a growth chamber at 22° C., for 8 days, after which time visual disease ratings were made. […] A dash (-) indicates the compound was not tested. The test suspensions were sprayed at the concentration listed in the column “Rate in ppm”, unless otherwise indicated.

Molecule | Test C rating (% disease control) ([1]; Rate 10 ppm test suspension) [%] | Test A rating (% disease control) ([2]; Rate 10 ppm test suspension) [%] | also measured
CCCCCOC(=O)c1cnn(Cc2ccc(-c3noc(C(F)(F)F)n3)cc2)c1 [compound 447] | 100 | 100 | –
COc1ccc(C(O)c2ccc(-c3noc(C(F)(F)F)n3)cc2)cc1 (racemic) [compound 309] | – | – | Test C disease control rating ([1]; 50 ppm test suspension): 68%; Test A disease control rating ([2]; 50 ppm test suspension): 100%
COC(=O)c1cnn(CCCc2ccc(-c3noc(C(F)(F)F)n3)cc2)c1 [compound 427] | – | – | Test C rating (% disease control) ([1]; Rate 50 ppm test suspension): 67%; Test A rating (% disease control) ([2]; Rate 50 ppm test suspension): 100%
CCOC(=O)c1cncn(Cc2ccc(-c3noc(C(F)(F)F)n3)cc2)c1=O [compound 418] | 99 | 100 | –
O=[N+]([O-])c1cnn(Cc2ccc(-c3noc(C(F)(F)F)n3)cc2)c1 [compound 382] | 96 | 100 | –
O=C(NCc1cccnc1)c1cnn(Cc2ccc(-c3noc(C(F)(F)F)n3)cc2)c1 [compound 483] | 54 | 100 | –
CCCCOC(=O)c1cnn(Cc2ccc(-c3noc(C(F)(F)F)n3)cc2)c1 [compound 410] | 100 | 100 | –
COC(=O)c1cccn(Cc2ccc(-c3noc(C(F)(F)F)n3)cc2)c1=O [compound 422] | 93 | 90 | –
COc1ccn(Cc2ccc(-c3noc(C(F)(F)F)n3)cc2)c(=O)c1 [compound 421] | 100 | 100 | –
O=C(OCC1CC1)c1cnn(Cc2ccc(-c3noc(C(F)(F)F)n3)cc2)c1 [compound 411] | 100 | 100 | –
CN(CC#N)C(=O)c1cnn(Cc2ccc(-c3noc(C(F)(F)F)n3)cc2)c1 [compound 379] | 97 | 100 | –
CCCOC(=O)c1cnn(Cc2ccc3cc(-c4noc(C(F)(F)F)n4)ccc3c2)c1 [compound 416] | – | – | Test C rating (% disease control) ([1]; Rate 50 ppm test suspension): 0%; Test A rating (% disease control) ([2]; Rate 50 ppm test suspension): 77%
COC(=O)c1ccc(=O)n(Cc2ccc(-c3noc(C(F)(F)F)n3)cc2)c1 [compound 420] | 100 | 100 | –
C#CCNC(=O)C1=NOC(Cc2ccc(-c3noc(C(F)(F)F)n3)s2)C1 (racemic) [compound 429] | – | – | Test C rating (% disease control) ([1]; Rate 50 ppm test suspension): 100%; Test A rating (% disease control) ([2]; Rate 50 ppm test suspension): 100%
C=CCOC(=O)c1cnn(Cc2cc(OC)c(-c3noc(C(F)(F)F)n3)s2)c1 [compound 440] | 0 | 0 | –
O=C(OCCCl)c1cnn(Cc2ccc(-c3noc(C(F)(F)F)n3)cc2)c1 [compound 477] | 100 | 100 | –
COCCNC(=O)C1=NOC(Cc2ccc(-c3noc(C(F)(F)F)n3)s2)C1 (racemic) [compound 461] | – | – | Test C rating (% disease control) ([1]; Rate 50 ppm test suspension): 100%; Test A rating (% disease control) ([2]; Rate 50 ppm test suspension): 100%
CCOC(=O)c1cn(Cc2ccc(-c3noc(C(F)(F)F)n3)cc2)c(=O)cn1 [compound 419] | 99 | 96 | –
FC(F)(F)c1nc(-c2ccc(Cn3cc4cc(Br)cnc4n3)cc2)no1 [compound 414] | 100 | 100 | –
CC(C)ON=Cc1cnn(Cc2ccc(-c3noc(C(F)(F)F)n3)cc2)c1 [compound 388] | 100 | 100 | –
FC(F)(F)c1nc(-c2ccc(Cn3ncc4ncccc43)cc2)no1 [compound 408] | 100 | 100 | –
O=C(OCc1ccccn1)c1cnn(Cc2ccc(-c3noc(C(F)(F)F)n3)cc2)c1 [compound 479] | 100 | 100 | –

Molecule | Test C rating (% disease control) ([1]; Rate 10 ppm test suspension) [%] | Test A rating (% disease control) ([2]; Rate 10 ppm test suspension) [%] | also measured
CNC(=O)C1=NOC(Cc2ccc(-c3noc(C(F)(F)F)n3)s2)C1 (racemic) [compound 368] | – | – | Test C disease control rating ([1]; 50 ppm test suspension): 100%; Test A disease control rating ([2]; 50 ppm test suspension): 100%
O=C(Nc1ccccc1)c1cnn(Cc2ccc(-c3noc(C(F)(F)F)n3)cc2)c1 [compound 485] | 99 | 100 | –
6-chloro-2-[[4-[5-(trifluoromethyl)-1,2,4-oxadiazol-3-yl]phenyl]methyl]-3(2H)-pyridazinone [Compound 4] | – | – | Test C disease control rating ([1]; 50 ppm test suspension): 100%; Test A disease control rating ([2]; 50 ppm test suspension): 100%
C=C(C#N)COC(=O)c1cnn(Cc2ccc(-c3noc(C(F)(F)F)n3)cc2)c1 [compound 486] | 89 | 100 | –
COCCNC(=O)c1cc(C)n(Cc2ccc(-c3noc(C(F)(F)F)n3)cc2)n1 [compound 183] | – | – | Test C disease control rating ([1]; 10 ppm test suspension): 100%; Test A disease control rating ([2]; 10 ppm test suspension): 100%
O=C(OCCCCl)c1cnn(Cc2ccc(-c3noc(C(F)(F)F)n3)cc2)c1 [compound 448] | 100 | 100 | –
CCNC(=O)C1=NOC(Cc2ccc(-c3noc(C(F)(F)F)n3)s2)C1 (racemic) [compound 369] | – | – | Test C disease control rating ([1]; 50 ppm test suspension): 100%; Test A disease control rating ([2]; 50 ppm test suspension): 100%
CC(C)CCOC(=O)c1cnn(Cc2ccc(-c3noc(C(F)(F)F)n3)cc2)c1 [compound 480] | 98 | 100 | –
CCOC(CC(=O)c1cnn(Cc2ccc(-c3noc(C(F)(F)F)n3)cc2)c1)OCC [compound 391] | 100 | 100 | –
CCONC(=O)c1cnn(Cc2ccc(-c3noc(C(F)(F)F)n3)cc2)c1 [compound 380] | 100 | 100 | –
FC(F)(F)c1nc(-c2ccc(Cn3cc4cnc(Cl)nc4n3)cc2)no1 [compound 433] | 99 | 100 | –
C=C(Cl)COC(=O)c1cnn(Cc2ccc(-c3noc(C(F)(F)F)n3)cc2)c1 [compound 482] | 100 | 100 | –
CNC(=O)c1cnn(CCCc2ccc(-c3noc(C(F)(F)F)n3)cc2)c1 [compound 415] | 96 | 100 | –
Nc1cnn(Cc2ccc(-c3noc(C(F)(F)F)n3)cc2)c1 [compound 381] | 0 | 0 | –
CCC(C)OC(=O)c1cnn(Cc2ccc(-c3noc(C(F)(F)F)n3)cc2)c1 (stereo not shown) [compound 481] | 100 | 100 | –
1-[[4-[5-(trifluoromethyl)-1,2,4-oxadiazol-3-yl]phenyl]methyl]-1H-pyrazolo[3,4-b]pyridine [Compound 147] | – | – | Test C disease control rating ([1]; 10 ppm test suspension): 68%; Test A disease control rating ([2]; 10 ppm test suspension): 100%
O=C(NCC(F)(F)F)c1cnn(Cc2ccc(-c3noc(C(F)(F)F)n3)cc2)c1 [compound 449] | 100 | 100 | –
O=C1N(Cc2ccc(-c3noc(C(F)(F)F)n3)cc2)CCc2cncn21 [compound 462] | 89 | 100 | –
CS(=O)(=O)CCOC(=O)c1cnn(Cc2ccc(-c3noc(C(F)(F)F)n3)cc2)c1 [compound 390] | 100 | 100 | –
CCOC(=O)COC(=O)c1cnn(Cc2ccc(-c3noc(C(F)(F)F)n3)cc2)c1 [compound 476] | 86 | 100 | –
CCOC(=O)Nc1cnn(Cc2ccc(-c3noc(C(F)(F)F)n3)cc2)c1 [compound 443] | 74 | 100 | –
COC(=O)c1ccc2c(c1)nnn2Cc1ccc(-c2noc(C(F)(F)F)n2)cc1 [compound 22] | – | – | Test C disease control rating ([1]; 10 ppm test suspension): 96%; Test A disease control rating ([2]; 10 ppm test suspension): 100%
